According to patent US20170058319A1, “NANOSENSOR FOR ASSESSING THROMBIN INHIBITORS” (VIRGINIA COMMONWEALTH UNIVERSITY, priority 2014, published 2017):
Entries after “also recorded” stand apart in the source; their conditions may differ.

Tests used:
[1] = cited from earlier work
[2] = Description: Stability of Au-TH nanoparticles was studied at RT and at −80° C. The NPs were kept in dark at RT for six hours and at −80° C. for 1 month. Absorbance spectra were measured every hour.
[3] = Catalytic activity of surface bound thrombin, Michaelis Menten kinetics; format: biochemical; conditions: PBS pH 7.4, 37° C., Spectrozyme TH 0.7-750 μM
Description: Michaelis Menten kinetics were utilized to test the catalytic activity of the surface bound thrombin on the AuNP-TH using a microplate chromogenic substrate hydrolysis assay. Briefly, 165 μL aliquots of PBS buffer pH 7.4 were placed in a 96-well microplate, to which either 5 μL of thrombin at a concentration of 0.04 mg/ml (1 μM) or 5 μL of AuNP-TH was added. The solution was incubated for 5 minutes at 37° C., followed by addition of 30 μL of serial dilutions of Spectrozyme TH substrate such that the final concentrations ranged from 0.7-750 μM. The velocity of substrate hydrolysis was measured by monitoring the slope of the increase in absorbance at 405 nm. A plot of velocity of substrate hydrolysis (v) vs substrate concentration ([S]) (FIG. 5) was fit to the Michaelis Menten equation below to yield the Michaelis Menten constant (KM) and maximum velocity of the reaction (VMAX), which are a direct measure of the catalytic efficiency of the enzyme.

[4] = target: T1, Au-TH nanoprobe (Bos taurus, UniProt P00735); assay: Quenching of [5F]-hirudin (54-65) SO3- fluorescence by Au-TH nanoprobe; format: binding, bovine; conditions: 30 nM HirP, 0.5 h at RT, 525 nm (λex=488 nm)
T1 construct: An aliquot of bovine α-thrombin (200 μg) from a stock solution; purchased Haematologic Technologies, Vermont, USA BCT-1020

[5] = target: T2, surface bound thrombin on the AuNP (Bos taurus, UniProt P00735); assay: Reactivity of surface bound thrombin to antithrombin, chromogenic substrate hydrolysis assay; format: biochemical, bovine; conditions: AT alone
T2 construct: An aliquot of bovine α-thrombin (200 μg) from a stock solution; purchased Haematologic Technologies, Vermont, USA BCT-1020
Description: To test if the surface bound thrombin on the AuNP is reactive towards antithrombin, chromogenic substrate hydrolysis assay like the one mentioned above was performed in the presence of antithrombin and heparin. In a 96-well microplate, 80 μL of PBS buffer was mixed with 5 μL of either AuNP or water. Following this, 5 μL of AT (100 μM) and 5 μL of heparin (3.6 mM) was added and the mixtures were incubated at 25° C. for 20 minutes. Controls were kept with and without AT and heparin, respectively. After incubation, 5 μL of 5 mM Spectrozyme TH was added and the rate of substrate hydrolysis was monitored by observing the absorbance at 405 nm. The velocity of the substrate hydrolysis as obtained by the slope was compared to that of the controls in order to assess the reactivity of the thrombin towards AT (FIG. 6). An approximate 70% reactivity towards AT in the presence of heparin is observed for the AuNP-TH sample.

[6] = target: T3, Au-TH-HirP nanoprobe (NSET pair) (Bos taurus, UniProt P00735); assay: Probing antithrombin levels in buffer with Au-TH-HirP nanoprobe (NSET pair); format: binding, bovine; conditions: for increase in fluorescence at 525 nm: 1 hr incubation
T3 construct: An aliquot of bovine α-thrombin (200 μg) from a stock solution; purchased Haematologic Technologies, Vermont, USA BCT-1020
Description: Au-TH-NP (6 nM, 50 μL) and HirP (50 μL, 30 nM) were mixed with 20 mM Tris-HCl buffer, pH 7.4, containing 100 mM NaCl, 2.5 mM CaCl2 and 0.1% PEG8000 and used as the standard nano-metal surface energy transfer (NSET) pair. Antithrombin (AT) was serially diluted starting from 100 μM to 1 pM by adding 20 mM Tris-HCl buffer, pH 7.4. Serially diluted AT solutions were then incubated with standard NSET pair in a 96-well plate for 0-1 h at RT with gentle rocking. A solution of 100 μL of Au-TH-HirP nanoprobe (NSET pair) mixed with 50 μL of buffer was used a control (F0). After 1 h of incubation, the 96-well plate was read at 525 nm (λex=488 nm) (F). A plot of F/F0 as Y-axis against AT concentration as X-axis is shown as FIG. 5. […] The fluorescence increases were smaller at 15, 30 and 45 min timepoints (FIG. 5).

[7] = in vivo; cited from earlier work
[8] = target: T4, NSET pair (Au-TH-NS and HirP) (Bos taurus, UniProt P00735); assay: Probing antithrombin levels in plasma with NSET pair; format: binding, bovine; conditions: 600 μM BSA, 5-20 μL
T4 construct: An aliquot of bovine α-thrombin (200 μg) from a stock solution; purchased Haematologic Technologies, Vermont, USA BCT-1020
Description: A 96-well plate was used for this experiment. The baseline fluorescence of the NSET pair (Au-TH-NS (6 nM, 50 μL) and HirP (50 μL, 30 nM) in 50 μL of 20 mM Tris-HCl buffer, pH 7.4, containing 100 mM NaCl, 2.5 mM CaCl2 and 0.1% PEG8000) was measured by recording the fluorescence emission at 525 nm (λex=488 nm). The NSET pair was then incubated with different volumes of plasma (5 μL, 10 μL, 15 μL and 20 μL). To assess specificity of AT reaction, the NSET pair was also incubated with 600 μM BSA (5 μL, […], 15 μL and 20 μL). The fluorescence intensity was recorded within 1-3 min after incubation began (FIG. 6).

[9] = system: AT levels; conditions: in vivo; cited from earlier work
[10] = target: T5, PF-4 heparin complex (Homo sapiens, UniProt P02776); conditions: in vivo; cited from earlier work
T5 sequence (P02776 32-101): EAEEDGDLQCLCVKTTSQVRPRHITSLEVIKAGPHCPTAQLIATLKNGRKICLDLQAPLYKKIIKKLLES

For `CCCCCCOC(=O)NC(=N)c1ccc(NCc2nc3cc(C(=O)N(CCC(=O)OCC)c4ccccn4)ccc3n2C)cc1` [Dabigatran etexilate], the liver function tests ([1]; doses as high as 300 mg twice a day for 12 weeks) is given as “no abnormal liver function tests” and the “patients who developed significant bleeding” value ([1]; trial with and without aspirin) is given as “approximately 11%”.
In the case of “Au-TH nanoparticles: gold nanoparticles covalently linked to bovine alpha-thrombin”, the “stability, change in absorbance spectra” value ([2]; RT, in dark, six hours) was “essentially no change”, the “stability, degradation on storage” value ([2]; −80° C., 1 month) was “did not exhibit any degradation” and the “VMAX and KM / catalytic efficiency compared with free thrombin” value ([3]; listed as Au-TH NP) was “identical to that of free thrombin”. For the same compound, the “VMAX and KM / catalytic efficiency compared with free thrombin” value ([3]; listed as AuNP-TH) was “remain almost the same as that of free thrombin”.
For [5F]-hirudin (54-65) SO3^− [HirP], the “quenching of fluorescence from HirP” value [4] was “approximately 86%”.
With antithrombin [AT] the “neutralization of surface bound thrombin by AT” value [5] was “up to 60%”, the “fluorescence increases at earlier timepoints” value ([6]; 15, 30 and 45 min timepoints versus 1 hr) was “smaller” and the “increase in fluorescence at 525 nm” value ([6]; AT 1 μM) was “approximately 40%”. The “increase in fluorescence at 525 nm” value ([6]; AT 10 μM) was roughly 25, the “increase in fluorescence at 525 nm” value ([6]; AT 100 μM) was roughly 20% and the increase in fluorescence ([6]; AT concentrations less than 1 μM) was “Noticeable increases”.
For bivalirudin, the half-life [7] is listed as 25 min.
In the case of bovine serum albumin [BSA], the “change in emission intensity” value [8] was “significant decrease; also recorded: Corresponding increases were not observed”.
In the case of heparin, the “incidence of acquired AT deficiency” value [9] is listed as no more than 25%.
For unfractionated heparin [UFH], the “patients forming antibodies to PF-4 heparin” value [10] is given as 30-40%.
